Assay results taken from patent publication US11952358B2, “Flavan-3-ol analogs and anti-inflammatory activity” (Hong Kong Baptist University, priority 2021, dated 2024).

System: IL-1β
Assay: ELISA of IL-1β secretion from LPS-stimulated RAW 264.7 cells
Type: cell-based, mouse
Conditions: compound 50 μM 24 h, then LPS 1 μg/mL 2 h (FIG. 8)
Experimental: RAW 264.7 cells were pretreated with each compound (50 μM) for 24 h followed by LPS (1 μg/mL) stimulation for another 2 h. The concentrations of IL-1β in RAW 264.7 cell culture supernatants were measured by ELISA kits and the inhibition rate of compound on the secretion of each pro-inflammatory cytokine was calculated. Data from three independent experiments were expressed as means±SD. *P<0.05, **P<0.01 compared with LPS-stimulated group.
Cell culture The RAW 264.7 cell line was purchased from the Cell Bank of Shanghai Institute of Biochemistry & Cell Biology at the Chinese Academy of Sciences (Shanghai, China) and cultured in DMEM supplemented with 10% (v/v) fetal bovine serum (FBS), 100 U/ml penicillin and 100 […], in a stable environment with 5% CO2 at 37° C. Before used in the following in vitro experiments, RAW 264.7 cells were pretreated with synthesized flavan-3-ol (25, 50 μM) for 24 h followed by LPS (1 μg/mL) stimulation for another 2 h.
Enzyme-Linked Immunosorbent Assay (ELISA) RAW 264.7 cells were treated with these synthesized flavan-3-ols (25, 50 μM) for 24 h followed by LPS (1 μg/mL) stimulation for another 2 h and the culture supernatant was collected. The concentrations of IL-1β, IL-6 and TNF-α in the culture supernatant of RAW 264.7 cells were determined according to the manufacturer's instructions of the Duo-set enzyme linked immune sorbent assay kits, purchased from R&D Systems Co. Ltd. (Minneapolis, MN, USA).
The increased pro-inflammatory cytokines production in RAW 264.7 cells has been reported to play an influential role in the inflammation response. To evaluate the anti-inflammatory effects of these flavan-3-ols in vitro, ELISA kits were employed to investigate their effects on the LPS (lipopolysaccharide)-induced pro-inflammatory cytokines production of RAW 264.7 cells. After treating with the flavan-3-ols (25 and 50 μM) and stimulated by LPS, the levels of three main pro-inflammation cytokines including IL-1β ([…]), IL-6 (interleukin-6), and TNF-α (tumor necrosis factor-α) in culture supernatant from RAW 264.7 cells were measured by ELISA kits, and then the inhibition rates of the flavan-3-ols on the secretion of each pro-inflammatory cytokine were calculated by the formula shown as follows.
[formula] In this formula, “L” refers to “the pro-inflammatory cytokine level in cell culture supernatant of LPS-induced group (L)” and “Lc” refers to “the pro-inflammatory cytokine level in cell culture supernatant of compound-treated group (Lc)”. Using this calculation, the reduced levels of pro-inflammation cytokines in the compound treated group would give higher values, which reflect higher inhibition rates.
FIG. 4a-c show the effect of flavan-3-ols on pro-inflammatory cytokine secretion in vitro. RAW 264.7 cells were pretreated with each compound (25, 50 μM) for 24 h followed by LPS (1 μg/mL) stimulation for another 2 h. The concentrations of IL-1β, IL-6, TNF-α in RAW 264.7 cell culture supernatants were measured by ELISA kits and the inhibition rate of compound on the secretion of each pro-inflammatory cytokine was calculated.

SMILES | inhibition rate of IL-1β secretion compared with enantiomer and racemic form
O[C@H]1Cc2cc(Cl)ccc2O[C@@H]1c1ccccc1 [3ae, (2R,3S)-6-chloro-2-phenylchroman-3-ol] | higher inhibition rates than their enantiomers
CCC[C@@H]1Oc2ccccc2C[C@H]1O [3p′, (2S,3R)-2-propylchroman-3-ol] | higher inhibition rate of IL-1β secretion than its racemic mixture

System: LPS-stimulated RAW 264.7 cells
Assay: RNA-sequencing analysis with GO and KEGG enrichment
Type: cell-based, mouse
Conditions: 50 μM; vs LPS-stimulated group; KEGG-classified inflammation-related genes
Experimental: RNA-sequencing analysis RAW 264.7 cells were treated with each flavan-3-ol (25, 50 μM) for 24 h followed by LPS (1 μg/mL) stimulation for another 2 h. Cells were collected and then directly prepared for cDNAs amplification and RNA-Seq library construction. Total RNA was isolated with TRIzol reagent from each group. A complementary DNA library was prepared and sequencing was performed according to the Illumina standard protocol developed by Suzhou GENEWIZ Biological Technology Co., Ltd. (https://www.genewiz.com). […] After filtering, reference genome and gene model annotation files were downloaded from a genome website browser (NCBI/UCSC/Ensembl). Indexes of the reference genome were built using Bowtie v2.0.6 and paired-end clean reads were aligned to the reference genome using TopHat v2.0.9. Bowtie was used for a BWT (Burrows-Wheeler Transformer) algorithm for mapping reads to the genome and Tophat can generate a database of splice junctions based on the gene model annotation file and thus achieve a better mapping result than other non-splice mapping tools. For the quantification of gene expression level, HTSeq V0.6.1 was used to count the read numbers mapped for each gene. The RPKM of each gene was calculated based on the gene read counts mapped to this gene. A differential expression analysis was performed using the DESeq R package (1.10.1). For clustering, the inventors clustered different samples to see the correlation using hierarchical clustering distance method with the function of heatmap, SOM (Self-organization mapping) and k means using silhouette coefficient to adapt the optimal classification with default parameter in R. The complete RNA-seq datasets in this manuscript captioned has been deposited at GEO database (http://www.ncbi.nlm.nih.gov/geo/) under accession ID GSE181052.
Gene ontology (GO) and KEGG enrichment analysis GO enrichment analysis of differentially expressed genes was implemented by the GOseq R Package, in which gene length bias was corrected. GO analysis was performed with the DAVID online tool (https://david.ncifcrf.gov/). Top GO categories were selected according to the P-values. Pathways of differentially expressed genes were analyzed by the KEGG database (http://www.kegg.jp/kegg/). The inventors used KOBAS software to test the statistical enrichment of differential expression genes in KEGG pathways.
RNA-seq analysis of downstream genes regulated by flavan-3-ols. […] RNA-seq analysis was performed to further study the effects of compounds 3m, 3o, 3p, 3ae and 3ag on gene transcriptional pathways related to inflammation. RAW 264.7 cells were used in the RNA-seq analysis, in which cells were pretreated with each compound (50 μM) for 24 h followed by LPS (1 μg/mL) stimulation for another 2 h. […] Next, the inventors focused on genes related to inflammatory reactions and inflammation-related diseases (inflammation-related genes) based on the gene and pathway classification of Kyoto Encyclopedia of Genes and Genomes (KEGG database).
To further analyze the functional distribution of differentially-expressed genes in relation to different biological processes, cellular components and molecular functions, gene ontology (GO) enrichment analysis was performed. The histogram of GO enrichment of differentially-expressed genes was presented.
Furthermore, to determine the biochemical metabolic pathways and signal transduction pathways involved in differentially expressed genes regulated by compound 3ag, KEGG pathway analysis was then performed.

SMILES | inflammation-related genes downregulated
O[C@H]1Cc2cc(Cl)ccc2O[C@@H]1c1ccccc1 [3ae, (2R,3S)-6-chloro-2-phenylchroman-3-ol] | downregulated parts of inflammation-related genes
CCC[C@H]1Oc2ccccc2C[C@@H]1O [3p, (2R,3S)-2-propylchroman-3-ol] | downregulated parts of inflammation-related genes

System: not given
Assay: not given
Conditions: not given

SMILES | melting point
Oc1ccc2c(c1)C=C[C@H](c1ccccc1)O2 [1ac, (R)-2-phenyl-2H-chromen-6-ol] | 81 to 82 °C
O[C@H]1Cc2cc(Cl)ccc2O[C@@H]1c1ccccc1 [3ae, (2R,3S)-6-chloro-2-phenylchroman-3-ol] | 130 to 131 °C
O[C@H]1Cc2ccccc2O[C@@H]1c1ccc(OCc2ccccc2)cc1 [3d, (2R,3S)-2-(4-(benzyloxy)phenyl)chroman-3-ol] | 113 to 114 °C
O[C@H]1Cc2ccccc2O[C@@H]1c1ccc(F)cc1 [3f, (2R,3S)-2-(4-fluorophenyl)chroman-3-ol] | 99 to 100 °C
O[C@H]1Cc2cc(Cl)ccc2O[C@@H]1c1ccc(Cl)cc1 [3ah, (2R,3S)-6-chloro-2-(4-chlorophenyl)chroman-3-ol] | 138 to 139 °C
Cc1cc2c(cc1Cl)C[C@H](O)[C@@H](c1ccccc1)O2 [3af, (2R,3S)-6-chloro-7-methyl-2-phenylchroman-3-ol] | 129 to 130 °C
Cc1ccc([C@H]2Oc3ccccc3C[C@@H]2O)cc1 [3b, (2R,3S)-2-(p-tolyl)chroman-3-ol] | 68 to 69 °C
Oc1ccc2c(c1)C[C@H](O)[C@@H](c1ccccc1)O2 [3ac, (2R,3S)-2-phenylchromane-3,6-diol] | 187 to 188 °C
COCOc1ccc2c(c1)C=C[C@H](c1ccccc1)O2 [1ab, (R)-6-(methoxymethoxy)-2-phenyl-2H-chromene] | 69 to 70 °C
COc1ccc([C@H]2Oc3ccccc3C[C@@H]2O)cc1 [3c, (2R,3S)-2-(4-methoxyphenyl)chroman-3-ol] | 89 to 90 °C
C1=C[C@H](c2ccc(OCc3ccccc3)cc2)Oc2ccccc21 [1d, (R)-2-(4-(benzyloxy)phenyl)-2H-chromene] | 92 to 93 °C
COCOc1ccc2c(c1)C[C@H](O)[C@@H](c1ccccc1)O2 [3ab, (2R,3S)-6-(methoxymethoxy)-2-phenylchroman-3-ol] | 65 to 66 °C
COCOc1ccc([C@H]2Oc3ccccc3C[C@@H]2O)cc1 [3e, (2R,3S)-2-(4-(methoxymethoxy)phenyl)chroman-3-ol] | 97 to 98 °C

Next, values leading:

melting point | SMILES
95 to 96 °C | Cc1ccc2c(c1)O[C@H](c1ccccc1)[C@@H](O)C2 [3s, (2R,3S)-7-methyl-2-phenylchroman-3-ol]
118 to 119 °C | COc1ccc2c(c1)C[C@H](O)[C@@H](c1ccccc1)O2 [3x, (2R,3S)-6-methoxy-2-phenylchroman-3-ol]
88 to 89 °C | Cc1cccc([C@H]2Oc3ccccc3C[C@@H]2O)c1 [3k, (2R,3S)-2-(m-tolyl)chroman-3-ol]
151 to 152 °C | COc1cccc2c1O[C@H](c1ccccc1)[C@@H](O)C2 [3z, (2R,3S)-8-methoxy-2-phenylchroman-3-ol]
106 to 107 °C | Oc1ccc([C@H]2Oc3ccccc3C[C@@H]2O)cc1 [compound 5, (2R,3S)-2-(4-hydroxyphenyl)chroman-3-ol]
149 to 150 °C | Cc1cc(C)c2c(c1)O[C@H](c1ccccc1)[C@@H](O)C2 [3u, (2R,3S)-5,7-dimethyl-2-phenylchroman-3-ol]
109 to 110 °C | O[C@H]1Cc2ccccc2O[C@@H]1c1ccc(Br)cc1 [3h, (2R,3S)-2-(4-bromophenyl)chroman-3-ol]
109 to 110 °C | Cc1ccc2c(c1)C[C@H](O)[C@@H](c1ccccc1)O2 [3r, (2R,3S)-6-methyl-2-phenylchroman-3-ol]
91 to 92 °C | Cc1ccccc1[C@H]1Oc2ccccc2C[C@@H]1O [3j, (2R,3S)-2-(o-tolyl)chroman-3-ol]
109 to 110 °C | O[C@H]1Cc2ccccc2O[C@@H]1c1ccc(Cl)cc1 [3g, (2R,3S)-2-(4-chlorophenyl)chroman-3-ol]
68 to 69 °C | Cc1cccc2c1O[C@H](c1ccccc1)[C@@H](O)C2 [3t, (2R,3S)-8-methyl-2-phenylchroman-3-ol]
135 to 136 °C | Cc1cc(C)cc([C@H]2Oc3ccccc3C[C@@H]2O)c1 [3l, (2R,3S)-2-(3,5-dimethylphenyl)chroman-3-ol]
116 to 117 °C | COc1cccc2c1C[C@H](O)[C@@H](c1ccccc1)O2 [3w, (2R,3S)-5-methoxy-2-phenylchroman-3-ol]
151 to 152 °C | Cc1cc2c(cc1C)O[C@H](c1ccccc1)[C@@H](O)C2 [3v, (2R,3S)-6,7-dimethyl-2-phenylchroman-3-ol]
116 to 117 °C | Cc1cccc2c1C[C@H](O)[C@@H](c1ccccc1)O2 [3q, (2R,3S)-5-methyl-2-phenylchroman-3-ol]
